Measured values: the METLIN SMRT retention time set (Domingo-Almenara et al. 2019)

Test: gradient 5% acetonitrile 3 min, to 50% in 2 min, to 85% in 15 min, held 3 min, 100 µL/min
Conditions: column: Zorbax Extend-C18 2.1 x 50 mm; eluents: water / acetonitrile, 0.1% formic acid
Procedure, shortened: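 Each retention time is based on an adduct peak selected computationally and verified by manual inspection. Measurements used HPLC–quadrupole time-of-flight mass spectrometry in positive and negative ionization mode on mixtures of ~100 pure standards. Chromatography ran on a Zorbax Extend-C18 column (2.1 × 50 mm, 1.8 μm) at 100 μL/min with water and acetonitrile, each containing 0.1% formic acid, and dead and dwell volumes of 40 μL and 900 μL.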

RP-LC retention time | Compound
556 s | CN(C)C1(CC2CC2)CCN(C(=O)c2ccco2)CC1
802 s | O=C(Nc1ccc2c(c1)OCO2)C(=O)c1ccc[nH]1
974 s | CCN1C(=O)C2CCCCN2c2ccc(C(=O)N3CCN(c4ccccc4)CC3)cc21 (stereo not given)
771 s | O=C(Nc1nnc(C2CC(=O)N(c3ccc(F)cc3)C2)o1)c1ccc(Cl)cc1 (stereo not given)
1010 s | Cc1cc(C)cc(S(=O)(=O)N2CCC(n3cnc4ccc(C)cc4c3=O)CC2)c1
690 s | O=C(NC1CCCCC1)c1c2c(nc3ccccc13)CCC2
992 s | O=c1ccn(-c2cccc(F)c2)nc1-c1nc(-c2cccc(Cl)c2)no1
652 s | Cc1ccc2c(C(=O)N3CCC(C)CC3)cc(NC(=O)C3CCC3)cc2n1
878 s | Cc1cccc(-c2noc(Cn3ncn4nc(-c5ccc(C)cc5C)cc4c3=O)n2)c1
611 s | Cc1cc(C)c(Cn2cnc3ccccc32)c(C)c1
736 s | CC(C)NC(=O)c1ccc(-c2ccsc2)nc1
800 s | CCN1CCn2cc(S(=O)(=O)N3CCCc4ccccc43)cc2C1=O
734 s | COc1ccc(CNC(=O)CN2CCN(Cc3ccc(C)cc3)C(=O)C2=O)cc1
940 s | CCOc1ccc(CC(=O)NC2(c3nc(CC)no3)CCCCC2)cc1
943 s | Cc1ccc(CNC(=O)c2ccc(Cn3c(C(F)(F)F)nc4cccnc43)cc2)cc1
685 s | COc1ccc(-c2nc3cccnc3n2C2CCN(C(=O)c3ccco3)C2)cc1 (stereo not given)
567 s | OC(COCc1ccc(Cl)cc1)CN1CCN(c2ccccn2)CC1 (stereo not given)
1150 s | CCc1ccc(CNC(=O)C2CCCN(c3nccnc3Oc3ccc(C)cc3)C2)cc1 (stereo not given)
953 s | CC1(C(=O)NCc2ccc(Cl)cc2)CN(S(C)(=O)=O)CC(=O)N1CCCc1ccccc1 (stereo not given)

RP-LC retention time | Compound
1030 s | Cc1ccc(-c2nnc(-c3nc(NCCc4ccco4)c4ccccc4n3)o2)cc1
947 s | CCn1ccc2oc(C)c(C(=O)NCc3cccc(F)c3)c2c1=O
813 s | Cc1nnc(-c2ccc3ccn(CC(=O)NC4CCCCCC4)c3c2)o1
588 s | CC1(C(=O)NCc2ccccc2)CCCN(C(=O)Nc2ccc(F)cc2)C1 (stereo not given)
743 s | N#Cc1ccc2c(c1)N(CCCN1CCC(O)CC1)c1ccccc1S2
624 s | CC(C)CN1C(=O)c2cccn2CC1C(=O)N1CCOCC1 (stereo not given)
630 s | CCCN1CCN(C(=O)C2Cc3cc(S(=O)(=O)N4CCCCC4)ccc3N2C(C)=O)CC1 (stereo not given)
993 s | c1cc(-c2nnc3sc(-c4csc5c4CCCC5)nn23)ccn1
918 s | Cn1ncc2c3ccccc3n(CCCC(=O)N3CCN(c4ccccc4)CC3)c2c1=O
606 s | CCn1c(=O)c(C(=O)NC2CCN(Cc3ccccc3)CC2)nc2cccnc21
607 s | COc1cccc2cc(C(=O)Nc3ccc(-c4ccc(N5CCCC5)nn4)cc3)oc12
784 s | Cc1nnc(N2CCCC(C(=O)NC3CCCCC3)C2)c2nn(-c3ccc(Cl)cc3)c(C)c12 (stereo not given)
944 s | CCOc1ccc(NC(=O)N2CCCN(c3ncccc3-c3nc(C4CC4)no3)CC2)cc1
1200 s | CCCN(CCC)S(=O)(=O)c1ccc(C)cc1
1260 s | Cc1cc(C)cc(NC(=O)c2cc(C(C)C)n3nccc3n2)c1
759 s | Cc1cc(C)n2c(Nc3ccc4c(c3)OCCO4)c(-c3cccc(Br)c3)nc2n1
708 s | O=C1NC2(CCN(C(=O)c3ccc4c(c3)OCO4)CC2)Nc2cc(Cl)ccc21
622 s | CCn1ccc(C(=O)N2CC[C@H]3N(CCOC)S(=O)(=O)CC[C@]3(C(=O)N3CCOCC3)C2)n1

Continued, molecule first:

Compound | RP-LC retention time
CC1(C)CC(=O)c2cn(-c3ccc(F)cc3)c(=O)c(C(=O)N3CCC(N4CCCCC4)CC3)c2C1 | 634 s
O=C(Cn1ccnc1-c1ccnc(N2CCCC2)c1)NCc1ccc(Cl)cc1 | 601 s
CCNC(=O)N1CCC(CCOc2cccnc2)CC1 | 579 s
COc1ccc(OC)c(S(=O)(=O)N2CCN(c3ccccn3)CC2)c1 | 594 s
Cc1oc(-c2[nH]ncc2C(=O)N(C)C)cc1S(=O)(=O)Nc1ccc(F)cc1Cl | 696 s
O=c1ccc(N2CCCN(S(=O)(=O)c3ccc(F)c(Cl)c3)CC2)nn1-c1ccccc1 | 911 s
CSc1nc2nc3c(cn2n1)C(=O)CC(C)C3 (stereo not given) | 705 s
Cc1nc(-c2cc(S(=O)(=O)NCc3ccc(F)cc3F)c(C)s2)cs1 | 956 s
COc1ccc(-c2c(C)noc2NC(C)=O)cc1S(=O)(=O)Nc1cc(Cl)ccc1C | 792 s
Cc1ccc(NC(=O)Nc2c(-c3ccc(F)cc3)nc3ccccn23)cc1C | 714 s
CCn1cnc2ccc(C(=O)NC3CCCC3)cc2c1=O | 688 s
C[C@H]1CN(S(=O)(=O)c2ccc(F)cc2)C[C@@H]1c1nc(-c2ccccc2)no1 | 1120 s
O=C(CN1CCCCC1c1nc(-c2cccc(F)c2)no1)Nc1cccc(F)c1 (stereo not given) | 967 s
COc1ccc(NC(=O)C2CCN(c3nnc(-c4ccc(OC)cc4)o3)CC2)cc1 | 824 s
CCc1nc2cc3c(cc2n1CC(=O)N1CCOCC1)OCCO3 | 567 s
CCCCC(=O)Nc1ccc2nc(N3CCN(C)CC3)cc(C(=O)O)c2c1 | 571 s
Cc1ccccc1CC(=O)N1CCc2cc(-c3ccno3)ccc21 | 1020 s
Nc1nc(CN2CCN(c3ccccn3)CC2)nc(Nc2cccc(Cl)c2)n1 | 788 s
Cc1ccc(NC(=O)C2CCN(S(=O)(=O)c3cn(C)cn3)CC2)cc1C | 734 s
CS(=O)(=O)N(Cc1ccncc1)C1CN(C(=O)c2ccoc2)C1 | 552 s
Cc1nc(-c2ccncc2)cc2nn(CC(=O)NCc3ccccc3)c(=O)n12 | 697 s
CC(C)(C)c1ccc(-c2noc(Cn3c(=O)n(-c4cccc(F)c4)c(=O)c4sccc43)n2)cc1 | 1220 s
CCCC1c2nccn2CCCN1C(=O)c1conc1C (stereo not given) | 568 s
Cc1ccc(CNC(=O)c2nc(Nc3ccc(F)cc3)c3ccccc3n2)o1 | 784 s
O=C1CCC2(CCN1)CCN(C(=O)C1CCCCC1)CC2 | 669 s
COc1ccc(C(=O)N2CCCn3nc(-c4cccs4)cc3C2)c(OC)c1 | 798 s
CC(C)Oc1ccc(-c2noc(Cn3ncn4nc(-c5ccc(F)cc5)cc4c3=O)n2)cc1 | 1210 s

Compound | RP-LC retention time
O=C(OCn1nnc2ccccc2c1=O)c1ccccc1[N+](=O)[O-] | 1030 s
CC(=O)N1CCC(NC(=O)Nc2cccc(C)c2)C1 (stereo not given) | 635 s
CCc1cccc(N2C(=O)CN(S(=O)(=O)CC)CC2(C)C(=O)NCc2ccc(F)cc2)c1 (stereo not given) | 945 s
COc1cccc(-c2cc(C(=O)N3CCOCC3)[nH]n2)c1 | 658 s
O=C(Nc1ccccc1C(F)(F)F)N1CCC(n2cnnc2C2CC2)C1 (stereo not given) | 640 s
O=C(NCc1csc(C2CCCN(C(=O)C3CCCCC3)C2)n1)C1CCC1 (stereo not given) | 774 s
O=C(Cn1cnc2nc(N3CCCC(C(=O)NC4CC4)C3)sc2c1=O)Nc1cc(F)cc(F)c1 (stereo not given) | 717 s
COc1cccc(NC(=O)c2cc(C(C)(C)C)n3nccc3n2)c1 | 1250 s
Cc1c(Cl)cccc1NC(=O)CCOc1ccccc1 | 888 s
Cc1ccnc(N2CCCC(C(=O)NCCN(CCc3ccccc3)Cc3ccco3)C2)n1 (stereo not given) | 671 s
CNC(=O)c1ccc(Cn2cnc3cccnc32)cc1 | 572 s
Cc1ccc(C)c(N2CCN(C(=O)c3cc(-c4ccncc4)cn3C)CC2)c1 | 710 s
O=C([C@@H]1C[C@H](Oc2ccccc2)CN1C(=O)c1ccco1)N1CCCC1 | 603 s
Cc1ccc2c(C)nc(Nc3ncc4c(n3)CCCC4=O)nc2c1 | 598 s
O=C(Nc1nc(-c2ccccc2)cs1)Oc1ccccc1 | 1030 s
COc1ccccc1NC(=O)Cn1nc2c(Oc3cc(C)cc(C)c3)nccn2c1=O | 957 s
COCCOC(=O)C1=C(C)NC2=C(C(=O)C(C(=O)OC)C(C)C2)C1c1cccc(F)c1 (stereo not given) | 832 s
O=C(NC1CCCCCC1)C1CCN(c2nccnc2Oc2ccccc2)CC1 | 1020 s
CN(C)CCCNC(=O)Cn1c(=O)n(-c2ccccc2)c2ncccc21 | 592 s
Cc1ccc(N2CC(C(=O)NCC(C)(O)C3CC3)CC2=O)cc1C (stereo not given) | 673 s
Cc1ccc(CNC(=O)C2(C)CCN(S(=O)(=O)c3ccc(Br)s3)CC2)cc1 | 1050 s
CCOc1ccc(CNC(=O)C2CCCN(c3nnc(C)c4c(C)n(-c5ccc(C)cc5)nc34)C2)cc1 (stereo not given) | 785 s
Cc1cc(OCC(=O)N2CCC[C@H]2C(=O)O)c2c3c(c(=O)oc2c1)CCCC3 | 754 s
COc1cccc(-n2cc(C(=O)Oc3cccnc3)c3ccccc3c2=O)c1 | 926 s
COc1ccc(CN2C(=O)COC[C@H]2C(=O)NCc2ccc(Cl)cc2)c(OC)c1 | 805 s
COc1ccc(Cl)cc1C(=O)Nc1ccc2c(c1)N(C)C(=O)C(C)(C)CO2 | 955 s
